Values of other authors, collected in patent US6821972B2, “3-heterocyclylpropanohydroxamic acid PCP inhibitors” (Pfizer Inc., priority 2001, dated 2004).
Non-standard residues stand in square brackets, D forms with d. Residues, ends and D or L forms follow the SMILES beside them. *: point of attachment. Sta = CC(C)C[C@H](N)[C@@H](O)CC(=O)O; Isovaleryl = CC(C)CC(=O)*

Experiments:
[1] = tested on: endothelial cell invasion of basement membrane
keratinocyte migration = conditions: collagen type I matrix, in vitro

O[C@H](CS)[C@H](O)CS (racemic) [Dithiothreitol, reference compound]
inhibitory to PCP at low concentrations (PCP): inhibitory at low concentrations

CNC(=O)[C@H](Cc1ccccc1)NC(=O)[C@H](CC(C)C)[C@H](CSc1cccs1)C(=O)NO [BB94, (2S,3R)-5-methyl-3-{[(1S)-1-(methylcarbamoyl)-2-phenylethyl]carbamoyl}-2-[(2-thienylthio)methyl]hexanohydroxamic acid]
inhibition of endothelial cell invasion [1]: inhibits endothelial cell invasion of basement membrane

CNC(=O)[C@H](Cc1ccc(OC)cc1)NC(=O)[C@@H](CC(=O)NO)CC(C)C [SC44463]
inhibition of keratinocyte migration (keratinocyte migration): completely inhibited

CCCCCCCCCCCCOS(=O)(=O)[O-].[Na+] [SDS, reference compound]
inhibitory to PCP at low concentrations (PCP): inhibitory at low concentrations

N.N.O=S(=O)(O)O [ammonium sulfate]
inhibitory to PCP at concentrations of 1-10 mM (PCP): inhibitory

N=C(N)NCCC[C@H](N)C(=O)O [arginine]
inhibition of PCP (in words) (PCP): inhibited

CC(C)C[C@H](NC(=O)[C@@H](NC(=O)N[C@@H](Cc1ccccc1)C(=O)O)[C@@H]1CCN=C(N)N1)C(=O)N[C@H](C=O)Cc1ccccc1 [chymostatin, reference compound]
inhibition of PCP (in words) (PCP): relatively strong inhibitors

NCCCC[C@H](N)C(=O)O [lysine]
inhibition of PCP (in words) (PCP): inhibited

CC(C)CC(=O)N[C@H](C(=O)N[C@H](C(=O)N[C@@H](CC(C)C)[C@@H](O)CC(=O)N[C@@H](C)C(=O)N[C@@H](CC(C)C)[C@@H](O)CC(=O)O)C(C)C)C(C)C [pepstatin A, reference compound] (Isovaleryl-VV[Sta]A[Sta]-OH)
inhibition of PCP (in words) (PCP): relatively strong inhibitors

Tris-HCl
inhibition of PCP activity by buffer (PCP; 0.2-0.5M): markedly inhibited activity

concanavalin A
inhibitory to PCP at low concentrations (PCP): inhibitory at low concentrations

phosphate
inhibitory to PCP at concentrations of 1-10 mM (PCP): inhibitory

B1: α2-Macroglobulin: "α2-Macroglobulin, ovostatin, and fetal bovine serum appear to at least partially inhibit PCP activity" (protein, UniProt P01023 24-1474, looked up)
Alpha-2-macroglobulin: SVSGKPQYMVLVPSLLHTETTEKGCVLLSYLNETVTVSASLESVRGNRSLFTDLEAENDVLHCVAFAVPKSSSNEEVMFLTVQVKGPTQEFKKRTTVMVKNEDSLVFVQTDKSIYKPGQTVKFRVVSMDENFHPLNELIPLVYIQDPKGNRIAQWQSFQLEGGLKQFSFPLSSEPFQGSYKVVVQKKSGGRTEHPFTVEEFVLPKFEVQVTVPKIITILEEEMNVSVCGLYTYGKPVPGHVTVSICRKYSDASDCHGEDSQAFCEKFSGQLNSHGCFYQQVKTKVFQLKRKEYEMKLHTEAQIQEEGTVVELTGRQSSEITRTITKLSFVKVDSHFRQGIPFFGQVRLVDGKGVPIPNKVIFIRGNEANYYSNATTDEHGLVQFSINTTNVMGTSLTVRVNYKDRSPCYGYQWVSEEHEEAHHTAYLVFSPSKSFVHLEPMSHELPCGHTQTVQAHYILNGGTLLGLKKLSFYYLIMAKGGIVRTGTHGLLVKQEDMKGHFSISIPVKSDIAPVARLLIYAVLPTGDVIGDSAKYDVENCLANKVDLSFSPSQSLPASHAHLRVTAAPQSVCALRAVDQSVLLMKPDAELSASSVYNLLPEKDLTGFPGPLNDQDNEDCINRHNVYINGITYTPVSSTNEKDMYSFLEDMGLKAFTNSKIRKPKMCPQLQQYEMHGPEGLRVGFYESDVMGRGHARLVHVEEPHTETVRKYFPETWIWDLVVVNSAGVAEVGVTVPDTITEWKAGAFCLSEDAGLGISSTASLRAFQPFFVELTMPYSVIRGEAFTLKATVLNYLPKCIRVSVQLEASPAFLAVPVEKEQAPHCICANGRQTVSWAVTPKSLGNVNFTVSAEALESQELCGTEVPSVPEHGRKDTVIKPLLVEPEGLEKETTFNSLLCPSGGEVSEELSLKLPPNVVEESARASVSVLGDILGSAMQNTQNLLQMPYGCGEQNMVLFAPNIYVLDYLNETQQLTPEIKSKAIGYLNTGYQRQLNYKHYDGSYSTFGERYGRNQGNTWLTAFVLKTFAQARAYIFIDEAHITQALIWLSQRQKDNGCFRSSGSLLNNAIKGGVEDEVTLSAYITIALLEIPLTVTHPVVRNALFCLESAWKTAQEGDHGSHVYTKALLAYAFALAGNQDKRKEVLKSLNEEAVKKDNSVHWERPQKPKAPVGHFYEPQAPSAEVEMTSYVLLAYLTAQPAPTSEDLTSATNIVKWITKQQNAQGGFSSTQDTVVALHALSKYGAATFTRTGKAAQVTIQSSGTFSSKFQVDNNNRLLLQQVSLPELPGEYSMKVTGEGCVYLQTSLKYNILPEKEEFPFALGVQTLPQTCDEPKAHTSFQISLSVSYTGSRSASNMAIVDVKMVSGFIPLKPTVKMLERSNHVSRTEVSSNHVLIYLDKVSNQTLSLFFTVLQDVPVRDLKPAIVKVYDYYETDEFAIAEYNAPCSKDLGNA
inhibition of PCP (in words) (PCP): at least partially inhibit

B2: ovostatin: "α2-Macroglobulin, ovostatin, and fetal bovine serum appear to at least partially inhibit PCP activity" (protein, UniProt P20740 37-1473, looked up)
Ovostatin: KEPEPQYVLMVPAVLQSDSPSQVCLQFFNLNQTISVRVVLEYDTINTTIFEKNTTTSNGLQCLNFMIPPVTSVSLAFISFTAKGTTFDLKERRSVMIWNMESFVFVQTDKPIYKPGQSVMFRVVALDFNFKPVQEMYPLIAVQDPQNNRIFQWQNVTSEINIVQIEFPLTEEPILGNYKIIVTKKSGERTSHSFLVEEYVLPKFDVTVTAPGSLTVMDSELTVKICAVYTYGQPVEGKVQLSVCRDFDSYGRCKKSPVCQSFTKDLDTDGCLSHILSSKVFELNRIGYKRNLDVKAIVTEKEQVCNLTATQSISITQVMSSLQFENVDHHYRRGIPYFGQIKLVDKDNSPISNKVIQLFVNNKNTHNFTTDINGIAPFSIDTSKIFDPELSLKALYKTSDQCHSEGWIEPSYPDASLSVQRLYSWTSSFVRIEPLWKDMSCGQKRMITVYYILNTEGYEHINIVNFYYVGMAKGKIVLTGEIKVNIQADQNGTFMIPLVVNEKMAPALRLLVYMLHPAKELVADSVRFSIEKCFKNKVQLQFSEKQMLTTSNVSLVIEAAANSFCAVRAVDKSMLLLKSETELSAETIYNLHPIQDLQGYIFNGLNLEDDPQDPCVSSDDIFHKGLYYRPLTSGLGPDVYQFLRDMGMKFFTNSKIRQPTVCTRETVRPPSYFLNAGFTASTHHVKLSAEVAREERGKRHILETIREFFPETWIWDIILINSTGKASVSYTIPDTITEWKASAFCVEELAGFGMSVPATLTAFQPFFVDLTLPYSIIHGEDFLVRANVFNYLNHCIKINVLLLESLDYQAKLISPEDDGCVCAKIRKSYVWNIFPKGTGDVLFSITAETNDDEACEEEALRNIRIDYRDTQIRALLVEPEGIRREETQNFLICMKDDVISQDVAIDLPTNVVEGSPRPSFSVVGDIMGTAIQNVHQLLQMPFGNGEQNMVLFAPNIYVLDYLDKTRQLSEDVKSKTIGYLVSGYQKQLSYKHPDGSYSTFGIRDKEGNTWLTAFVYKSFAEASRFIYIDDNVQAQTLIWLATKQKTDGCFQSTGILVNNAMKGGVENELSLSAYITIALLEAGHSMSHTVIRNAFYCLETASEKNITDIYTQALVAYAFCLAGKAEICESFLRELQKSAKEVDGSKYWEQNQRSAPEKSHLLDHVQSTDVEITSYVLLALLYKPNRSQEDLTKASAIVQWIIRQQNSYGGFASMQDTVVALQALAAYGAATYNSVTQNVIKINSKNTFEKVFTVNNENRLLLQQTPLPQVPGKYSLTVNGTGCVLIQTALRYNIHLPEGAFGFSLSVQTSNASCPRDQPGKFDIVLISSYTGKRSSSNMVIIDVKMLSGFVPVKSSLDQLIDDHTVMQVEYKKNHVLLYLGNILQKRRKEVTFSVEQDFVVTHPKPAPVQIYDYYETEEYAVAEYMSLCRGVVEEMG
inhibition of PCP (in words) (PCP): at least partially inhibit
